Data: ChEMBL document CHEMBL1128019, “Gem-disubstituted amino-ether based substance p antagonists” (Bioorg Med Chem Lett, 1994)
pIC50: −log10 of the molar value.

Biological target: Substance-P receptor (Homo sapiens, UniProt P25103)
Assay: Binding affinity for human NK1 receptor expressed in CHO cells
Type: cell-based

Substance-P receptor, sequence (P25103 whole entry): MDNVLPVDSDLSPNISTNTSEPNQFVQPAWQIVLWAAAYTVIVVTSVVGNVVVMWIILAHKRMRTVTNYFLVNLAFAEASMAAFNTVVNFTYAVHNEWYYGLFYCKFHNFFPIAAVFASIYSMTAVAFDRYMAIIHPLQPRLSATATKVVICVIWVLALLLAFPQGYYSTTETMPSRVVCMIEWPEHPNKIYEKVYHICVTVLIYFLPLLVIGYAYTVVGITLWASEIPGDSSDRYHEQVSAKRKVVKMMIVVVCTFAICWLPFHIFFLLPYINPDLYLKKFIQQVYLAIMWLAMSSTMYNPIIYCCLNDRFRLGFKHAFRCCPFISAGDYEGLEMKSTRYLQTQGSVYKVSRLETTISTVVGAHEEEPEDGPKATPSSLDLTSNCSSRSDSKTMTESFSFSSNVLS

| pIC50 | Compound |
| --- | --- |
| 9.00 | FC(F)(F)c1cc(COC[C@]2(c3ccccc3)CCCCN2)cc(C(F)(F)F)c1 |
| 7.70 | FC(F)(F)c1cc(COC[C@]2(c3ccccc3)CCCN2)cc(C(F)(F)F)c1 |
